Measured values published in patent publication US20130273096A1, “Therapeutic Sulfated Polysaccharides, Compositions Thereof, and Methods for Treating Patients” (priority 2011, published 2013).

Assays:
endothelial cells = experiment: Heparan sulfate (HS) stimulus experiment; format: cell-based; conditions: vs control; FIG. 10
Method: A heparin sulfate (HS) stimulus experiment was performed as known in the art, using the four RS isoforms described herein. […] While the results shown here are limited to the RS isoforms studied, the type of polysaccharides to which this applies can be expanded to other classes of compounds that likely have similar effects, such as PUFAs, non-sulfated PS, other polymers, and the like. These RS (and other similar acting substances found in nature) can be used for in vivo HS and GAG production instead of administering HS or other GAGS for therapeutic effect.

endothelial cells (EC) = experiment: Disaccharide analysis of heparan sulfate synthesized by endothelial cells; format: cell-based; conditions: EC exposed to RS vs control cell fraction; FIG. 4
Method: Purified heparin sulfate (HS) from the endothelial cells (EC) exposed or not exposed to RS #2 were incubated with a mixture of heparin lyases (heparinase I and II, 2.5 mlU each, available from Sigma) and the disaccharides produced by the enzymatic action were separated on a Phenosphere SAX column (Phenomenex, Torrance, Calif., USA) 150×4.6 mm using a NaCl gradient of 0-1 M in 30 min with a flux of 1 mL/min. Individual fractions (0.5 mL) were collected and counted using a micro-beta counter. […] The abbreviations used in the figure are: GlcNS(6S)=2-deoxy-6-O-sulfo-2-(sulfoamino)-α-D-glucopyranoside; GlcA=β-D-glucopyranuronosyl; GlcNS(3S,6S)=2-deoxy-3,6-di-O-sulfo-2-(sulfoamino)-α-D-glucopyranosyl; IdoA(2S)=2-O-sulfo-α-L-idopyranuronosyl; and, GlcNS(6S)OMe=methyl-O-2-deoxy-6-O-sulfo-2-(sulfoamino)-α-D-glucopyranoside.
As for the heparin stimulus, the HS produced by these cells have more of heparin sequences [-4) IdoA2S(1-4)GlcNS,6S] (heparin's basic structure). […] Counting from the left, the RS-induced heparans are chains of disaccharide pairs like sugar groups number 4-5 hooked together. Additionally, the major fraction of stimulated heparan sulfate produced are tri-sulfated discaccharides (Iodo2S-GlcNS,6S), typical of the major sequence in heparin.

[1] = test system: human coronary artery endothelial cells (HCAEC); experiment: LDL permeability of HCAEC monolayers; format: cell-based; conditions: 12.5 to 12004/mL, 24 hrs to 5 day, FIGS. 6 and 7
Method: To test whether any of the RS isoforms could inhibit apoptosisn in human coronary artery endothelial cells (HCAEC), the HCAEC (human coronary artery endothelial cell) monolayers were incubated with each of two isoforms, RS#1 or RS#2, at concentrations ranging from 12.5 to 12004/mL for a period of time ranging from 24 hrs to 5 day, before the permeability of LDL (low density lipoprotein) was measured. In addition, some monolayers were induced to undergo apoptosis with TNF-α/CHX in the presence or absence of RS#1 or RS#2 and the permeability of LDL was measured. As shown in the figure, Dil means 11′-dioctadecyl-3,3-3′,3′-tetramethylindo-carbocyanide perchlorate. […] When the monolayers were induced to undergo apoptosis the permeability increased by ˜2-3-fold.

HCAEC monolayers [2] = experiment: Water flux through HCAEC monolayers; format: cell-based, human; conditions: FIG. 8
HCAEC monolayers [3] = experiment: Heparan sulfate immunostaining of HCAEC monolayers; format: cell-based, human; conditions: 1004/mL for 24 hrs; confocal microscope; FIG. 9
Method: HCAEC monolayers were incubated with RS#1 at 1004/mL for 24 hrs and immunostaining for heparan sulfate was performed. The monolayers were then imaged using a laser scanning confocal microscope. One control and one RS#1-treated monolayers were stained and four representative fields from each case were imaged. In control monolayers, heparan sulfate immunostaining seemed to be concentrated on the cell-cell junction area (FIG. 9A).

Substance	cellular HS content (cellular fraction of heparans) (endothelial cells)	heparin sequences composed of the tri-sulfated disaccharide (ΔU2S-GlcNS,6S) in HS synthesized by EC (endothelial cells (EC))	reduction of LDL permeability of control monolayers [1] [fold]	decrease of water flux through HCAEC monolayers (HCAEC monolayers [2]) [%]	coverage of heparan sulfate on HCAEC monolayers (immunostaining) (HCAEC monolayers [3])
rhamnan sulfate [RS #3]	no change	–	–	–	–
rhamnan sulfate [RS #2]	–	significant increase	5	~20	–
L-arginine (L-Arg) salt of rhamnan sulfate [RS #1]	–	–	5	~50	increased the coverage
